Measurements as given in patent publication US7094809B2, “Method of treating subject infected with Neisseria gonorrhea” (Northeastern Ohio Universities College of Medicine, priority 2000, dated 2006).

What was measured:
HSV-1 [1] = experiment: HSV-1 plaque assay, infected Vero cells, moi 1 (Example 3); format: cell-based
Method: Cultures of African green monkey kidney cells (Vero) cells, obtained from the American Type Culture Collection, Rockville, Md. were grown to confluence in Medium 199 supplemented with 5% fetal bovine serum, 0.075% NaHCO3, and 50 μg/ml gentamycin sulfate in 25 cm^2 tissue culture flasks. Cells were infected with HSV-1 at a multiplicity of infection (moi) of one and incubated at room temperature for one hour to allow for virus attachment to and penetration of the cell. Under these conditions, approximately half of the cells are infected with virus. Thereafter, the cultures were rinsed three time with media and incubated in medium containing 50 μM or 75 μM 4, 4′-dihydroxytolan prepared in 0.2% dimethyl-sulfoxide (DMSO). Controls were treated identically, but were incubated without the dihyroxylated tolan. For purposes of comparison, HSV cell were also inoculated in the presence of 52.5 μM 4,4′-dihydroxystilbene. Due to the higher cell toxicity of the stilbene, cells were not incubated in the presence of 75 μM dihydroxystilbene.
Upon addition of the medium to the cultures and at 24 hours time periods thereafter, i.e., 0 hours, 24 hours, 48 hours, and 72 hours after addition of the drug, cells and medium were frozen at −70° C. Samples were then thawed, sonicated and titrated on Vero cells to determine the number of plaque forming units (pfu's) of virus produced by each culture.

HSV-1 [2] = experiment: HSV-1 plaque assay, time of drug addition, Vero cells, moi 10 (Example 4); format: cell-based
Method: Vero cell cultures were infected with HSV-1 as described above in Example 3 except that the cells were infected with virus at an moi of 10. Under these conditions nearly all of the cells are infected with virus during the initial one hour incubation period. Following removal of unattached virus, the virally-infected cultures were incubated in control medium lacking a hydroxylated tolan or medium to which 105 μM 4,4′-dihydroxytolan had been added at 1, 3, 6, or 9 hours after removal of the unattached virus. At 24 hours after infection, the number of pfu's present in the cells and medium of untreated and hydroxylated tolan-treated cultures was determined.

HSV-1 [3] = experiment: Direct inactivation of HSV-1 inoculum, residual pfu by plaque assay; format: cell-based; conditions: 105 μM, room temperature, 1 to 60 minutes, data not shown
Method: To determine whether hydroxylated tolans block formation of infectious herpes virus particles by directly inactivating the virus, a standard inoculum of HSV-1 was mixed with 105 μM 4,4′-dihydroxytolan in medium, with 0.2% DMSO in medium, or with media alone and placed at room temperature. The number of residual pfu's present at 1, 10, 30, and 60 minutes after addition of each respective solution to the virus was determined by plaque assay.

HSV-1 [4] = experiment: Reversibility of inhibition of HSV replication, Vero cells, moi 1 (Example 5); format: cell-based; conditions: 105 μM
Method: Vero cells were grown to confluence and infected with HSV-1 at an moi of 1 and then incubated in media lacking a hydroxylated tolan (control cultures) or in media containing 105 μM 4,4′-dihydroxytolan. One set of infected cells was maintained in the dihydroxylatedtolan for a period of 72 hours. In another set of infected cells the dihydroxytolan-containing media was replaced with media lacking a hydroxylated tolan at 24 hours. In another set of cells the tolan-containing media was replaced with media lacking the hydroxylated tolan at 48 hours after infection. The number of infectious HSV particles produced by each set of infected cells was determined by plaque assay.

Vero cells [5] = experiment: Cell viability studies, uninfected Vero cells; format: cell-based, African green monkey; conditions: 105 μM, 24 hours
Method: Cell viability studies confirmed that treatment of uninfected Vero cells with 105 μM 4,4′-dihydroxytolan for 24 hours was not toxic.

ICP-4 = experiment: Western blot of ICP-4 in HSV-1 infected Vero cells; format: cell-based; conditions: 105 μM, 24 hours
Method: (§1) ICP-4 and ICP-27 are immediate-early regulatory proteins of HSV-1 that are required for efficient replication of this virus. To determine whether ICP-4 or ICP-27 production is altered by treatment with a hydroxylated tolan, separate cultures of Vero cells were infected with HSV-1 at an moi of 1 and incubated in control medium or medium containing 105 μM 4,4′-dihydroxytolan for 24 hours. Infected cells were scraped from the flask, collected by centrifugation, and resuspended in cold tris-buffered saline, pelleted by centrifugation, and the cell pellet frozen at −70° C. Proteins were extracted from the thawed pellets, separated by 6–15% SDS-PAGE, and assayed on a Western blot by reacting with mouse monoclonal antibody to ICP-4 or ICP-27 from Goodwin Institute for Cancer Research Inc., FL.

ICP-27 = experiment: Western blot of ICP-27 in HSV-1 infected Vero cells; format: cell-based; conditions: 105 μM, 24 hours
Method: as §1

Vero cells [6] = experiment: MTT colorimetric cell toxicity assay; format: cell-based, African green monkey
Method: Cell toxicity of the tolans 4,4′-dihydroxytolan (“Tolan-5”), 3,4′,5-trihydroxytolan (“Tolan-10”) and 4-hydroxy-4′-trifluoromethyltolan (“Tolan-11”) was determined using an MTT assay. In this assay, cells are exposed to MTT, 3-(4,5-dimethylthiazol-2-yl)-2,5-diphenyltetrazolium bromide, which is taken into the cells and reduced by mitochondrial dehydrogenase to a purple formazan, a large molecule which is unable to pass through intact cell membranes, and therefore accumulates in healthy cells. The ability of cells to reduce MTT is an indication of mitochondrial integrity and activity, which may be interpreted as a measure of viability. Solubilization of the cells results in the liberation of the product which can readily be detected spectrophotometrically.
Various concentrations of Tolan-5, Tolan-10 and Tolan-11 were added to 96 well tissue culture plates that had been seeded with Vero cells. The plates were then incubated at 37° C. in 5% CO2/95% air for 24, 48 and 72 hours. At the end of each time point, 50 μl of MTT (1 mg/ml) was added to the tissue culture plates which were then incubated for an additional four hours. At the end of that time, dimethyl sulfoxide (DMSO) was added to dissolve the cells and formazan, and the plates were read spectrophotometrically at 540 nm. […] Presented in Table I below are the toxicity results for Tolan-5, Tolan-10, and Tolan-11 measured at 24, 48 and 72 hours of treatment.

HSV-1 [7] = experiment: Inhibition of HSV-1 replication in vitro, plaque assay (Example 9); format: cell-based
Method: Tissue culture cells were infected with HSV-1 and incubated in solutions containing Tolan-5, Tolan-10 and Tolan-11. The concentrations used ranged from one-half to three-quarters of the calculated CD50 for the respective tolan at 48 hours of treatment. Specifically, Vero cells were infected with HSV-1 at a multiplicity of infection of one for one hour. At the end of that time, the cultures were rinsed with media and fresh media containing various concentration of the respective tolan were added. Infected control cultures were incubated in media lacking hydroxylated tolan. At 1, 24, 48, and 72 hours after infection, samples were frozen at −70° C. until assayed for new virus production. Virus production was quantified by the plaque assay for each time point of infection. The results, which are expressed as plaque forming units per milliliter (pfu/ml).

Oc1ccc(C#Cc2ccc(O)cc2)cc1 [Tolan-5, 4,4′-dihydroxytolan]
reduction of new virus production (HSV-1 [1]; 50 μM): 95%
infectious HSV particles in cultures (HSV-1 [1]; 75 μM continuously, by 72 hours): virtually undetectable
inhibition at 75 µM (HSV-1 [1]; Human alphaherpesvirus 1, 75 μM, 24 hours, Vero cells, moi 1, read-out: inhibition of formation of infectious virus particles): > 99%
inhibition of production of virus (HSV-1 [2]; 105 μM added 6 hours after infection, pfu at 24 hours, moi 10): approximately 90%
reduction of production of virus (HSV-1 [2]; 105 μM added one hour after infection, pfu at 24 hours, moi 10): more than 99%
inhibition at 105 µM (HSV-1 [2]; Human alphaherpesvirus 1, Vero, 105 μM added 3 hours after infection, pfu at 24 hours, moi 10, read-out: inhibition of production of virus): ~90%
formation of infectious virus particles (HSV-1 [2]; added 9 hours after infection): not inhibited
direct inactivation of HSV (HSV-1 [3]): did not directly inactivate HSV
reversibility of inhibitory effect on HSV replication (HSV-1 [4]; drug removed at 24 or 48 hours): reversible
cell killing on prolonged exposure (HSV-1 [4]; prolonged period of time, mammalian cells): does not kill the cells
toxicity to uninfected Vero cells (Vero cells [5]): not toxic
synthesis of ICP-4 (ICP-4): significantly reduced
synthesis of ICP-27 (ICP-27): significantly reduced
CD50 (Vero cells [6]; 48 hours): 106 µM
CD50 (Vero cells [6]; 72 hours): 84.0 µM
inhibition of virus, comparison of concentrations (HSV-1 [7]; 75 μm versus 50 μm): more inhibitory to the virus at 75 μm that at 50 μm
HSV-1 production (HSV-1 [7]; Vero cells, moi 1, up to 72 hours): inhibited HSV-1 production
